These compounds were tested against T1, chicken gizzard smooth muscle myosin subfragment-1 chemically crosslinked to cardiac or skeletal actin (Gallus gallus, UniProt P10587) (assay: Smooth muscle myosin ATPase dose response assay (pyruvate kinase/horseradish peroxidase/pyruvate oxidase-coupled, amplex red fluorescence)). Settings: read-out: IC50 Arithmetic Mean.
T1 construct: chicken gizzard smooth muscle myosin subfragment-1; from tissue; host or cells: chicken gizzard
Format: biochemical
Procedure, shortened: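 EDC/NHS-crosslinked S1–actin, amount set per prep by rate titration. Buffer: 12 mM K-PIPES pH 7.00 (22° C), 100 mM KCl, 2 mM MgCl2, 0.15 mM ATP, 0.1 mM PEP, 2 mM KPi, 0.1 mM amplex red. Read ex 480/em 615 nm; IC50 = midpoint, 4-param Hill fit.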

T1 sequence (P02607 2-151): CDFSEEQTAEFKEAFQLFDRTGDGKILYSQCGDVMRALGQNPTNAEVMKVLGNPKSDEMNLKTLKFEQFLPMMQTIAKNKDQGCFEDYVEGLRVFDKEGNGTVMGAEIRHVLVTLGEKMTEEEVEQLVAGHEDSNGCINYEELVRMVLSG
T1 sequence (P10587 84-789): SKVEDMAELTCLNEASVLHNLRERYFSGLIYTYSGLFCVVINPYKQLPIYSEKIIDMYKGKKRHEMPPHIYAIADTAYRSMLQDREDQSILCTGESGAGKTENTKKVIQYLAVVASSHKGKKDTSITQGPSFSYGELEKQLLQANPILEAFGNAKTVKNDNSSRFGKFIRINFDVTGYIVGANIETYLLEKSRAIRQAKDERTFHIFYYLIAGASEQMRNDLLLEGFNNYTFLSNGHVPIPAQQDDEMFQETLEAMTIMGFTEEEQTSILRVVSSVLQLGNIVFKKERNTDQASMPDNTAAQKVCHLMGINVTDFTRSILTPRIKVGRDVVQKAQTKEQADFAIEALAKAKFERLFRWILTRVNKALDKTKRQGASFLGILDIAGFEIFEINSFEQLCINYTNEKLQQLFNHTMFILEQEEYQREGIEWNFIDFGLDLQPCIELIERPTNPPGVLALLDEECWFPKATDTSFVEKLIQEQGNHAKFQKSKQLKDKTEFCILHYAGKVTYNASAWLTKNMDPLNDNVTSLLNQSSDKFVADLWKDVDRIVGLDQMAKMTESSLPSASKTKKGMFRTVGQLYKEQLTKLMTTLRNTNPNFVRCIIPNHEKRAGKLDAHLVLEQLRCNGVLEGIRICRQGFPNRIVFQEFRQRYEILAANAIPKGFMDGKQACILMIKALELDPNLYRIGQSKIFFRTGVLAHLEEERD

Row | Structure (SMILES) | IC50 [nM]
1 | Cn1cc(-c2nc(NCCc3cccc(F)c3)c(C(=O)NC[C@H]3CCCN3C(=O)CCN)cc2F)cn1 [N-{[(2R)-1-(3-aminopropanoyl)pyrrolidin-2-yl]methyl}(5-fluoro-2-{[2-(3-fluorophenyl)ethyl]amino}-6-(1-methylpyrazol-4-yl)(3-pyridyl))carboxamide] | 70
2 | NCCC(=O)N1CCC[C@@H]1CNC(=O)c1cc(F)c(-c2cn[nH]c2)nc1NCCc1cccc(F)c1 [N-{[(2R)-1-(3-aminopropanoyl)pyrrolidin-2-yl]methyl}(5-fluoro-2-{[2-(3-fluorophenyl)ethyl]amino}-6-pyrazol-4-yl(3-pyridyl))carboxamide] | 90
3 | N#Cc1ccccc1-c1ccc(C(=O)NC[C@H]2CCCN2C(=O)CCN)c(NCCc2cccc(F)c2)n1 [N-{[(2R)-1-(3-aminopropanoyl)pyrrolidin-2-yl]methyl}(6-(2-cyanophenyl)-2-{[2-(3-fluorophenyl)ethyl]amino}(3-pyridyl))carboxamide] | 47
4 | N#Cc1ccccc1-c1nc(NCCc2cccc(F)c2)c(C(=O)NC[C@H]2CCCN2C(=O)CCN)cc1F [N-{[(2R)-1-(3-aminopropanoyl)pyrrolidin-2-yl]methyl}(6-(2-cyanophenyl)-5-fluoro-2-{[2-(3-fluorophenyl)ethyl]amino}(3-pyridyl))carboxamide] | 42
5 | Cc1cc(C(=O)NC[C@H]2CCC(=O)N2CCCN)c(NCCc2cccc(F)c2)nc1-c1cnn(C)c1 [N-{[(2R)-1-(3-aminopropyl)-5-oxopyrrolidin-2-yl]methyl}(2-{[2-(3-fluorophenyl)ethyl]amino}-5-methyl-6-(1-methylpyrazol-4-yl)(3-pyridyl))carboxamide] | 577
6 | Cn1cc(-c2ccc(C(=O)NC[C@H]3CCC(=O)N3CCCN)c(NCCc3cccc(F)c3)n2)cn1 [N-{[(2R)-1-(3-aminopropyl)-5-oxopyrrolidin-2-yl]methyl}(2-{[2-(3-fluorophenyl)ethyl]amino}-6-(1-methylpyrazol-4-yl)(3-pyridyl))carboxamide] | 290
7 | NCCCN1C(=O)CC[C@@H]1CNC(=O)c1ccc(-c2cn[nH]c2)nc1NCCc1cccc(F)c1 [N-{[(2R)-1-(3-aminopropyl)-5-oxopyrrolidin-2-yl]methyl}(2-{[2-(3-fluorophenyl)ethyl]amino}-6-pyrazol-4-yl(3-pyridyl))carboxamide] | 966
8 | Cn1cc(-c2nc(NCCc3cccc(F)c3)c(C(=O)NC[C@H]3CCC(=O)N3CCCN)cc2Cl)cn1 [N-{[(2R)-1-(3-aminopropyl)-5-oxopyrrolidin-2-yl]methyl}(5-chloro-2-{[2-(3-fluorophenyl)ethyl]amino}-6-(1-methylpyrazol-4-yl)(3-pyridyl))carboxamide] | 160
9 | Cn1cc(-c2nc(NCCc3cccc(F)c3)c(C(=O)NC[C@H]3CCC(=O)N3CCCN)cc2C#N)cn1 [N-{[(2R)-1-(3-aminopropyl)-5-oxopyrrolidin-2-yl]methyl}(5-cyano-2-{[2-(3-fluorophenyl)ethyl]amino}-6-(1-methylpyrazol-4-yl)(3-pyridyl))carboxamide] | 310
10 | N#Cc1cc(C(=O)NC[C@H]2CCC(=O)N2CCCN)c(NCCc2cccc(F)c2)nc1-c1cn[nH]c1 [N-{[(2R)-1-(3-aminopropyl)-5-oxopyrrolidin-2-yl]methyl}(5-cyano-2-{[2-(3-fluorophenyl)ethyl]amino}-6-pyrazol-4-yl(3-pyridyl))carboxamide] | 735
11 | Cn1cc(-c2nc(NCCc3cccc(F)c3)c(C(=O)NC[C@H]3CCC(=O)N3CCCN)cc2F)cn1 [N-{[(2R)-1-(3-aminopropyl)-5-oxopyrrolidin-2-yl]methyl}(5-fluoro-2-{[2-(3-fluorophenyl)ethyl]amino}-6-(1-methylpyrazol-4-yl)(3-pyridyl))carboxamide] | 79
12 | NCCCN1C(=O)CC[C@@H]1CNC(=O)c1cc(F)c(-c2cn[nH]c2)nc1NCCc1cccc(F)c1 [N-{[(2R)-1-(3-aminopropyl)-5-oxopyrrolidin-2-yl]methyl}(5-fluoro-2-{[2-(3-fluorophenyl)ethyl]amino}-6-pyrazol-4-yl(3-pyridyl))carboxamide] | 66
13 | N#Cc1ccccc1-c1ccc(C(=O)NC[C@H]2CCC(=O)N2CCCN)c(NCCc2cccc(F)c2)n1 [N-{[(2R)-1-(3-aminopropyl)-5-oxopyrrolidin-2-yl]methyl}(6-(2-cyanophenyl)-2-{[2-(3-fluorophenyl)ethyl]amino}(3-pyridyl))carboxamide] | 42
14 | Cc1cc(C(=O)NC[C@H]2CCC(=O)N2CCCN)c(NCCc2cccc(F)c2)nc1-c1ccccc1C#N [N-{[(2R)-1-(3-aminopropyl)-5-oxopyrrolidin-2-yl]methyl}(6-(2-cyanophenyl)-2-{[2-(3-fluorophenyl)ethyl]amino}-5-methyl(3-pyridyl))carboxamide] | 1230
15 | N#Cc1ccccc1-c1nc(NCCc2cccc(F)c2)c(C(=O)NC[C@H]2CCC(=O)N2CCCN)cc1F [N-{[(2R)-1-(3-aminopropyl)-5-oxopyrrolidin-2-yl]methyl}(6-(2-cyanophenyl)-5-fluoro-2-{[2-(3-fluorophenyl)ethyl]amino}(3-pyridyl))carboxamide] | 42
16 | N#Cc1ccccc1-c1ccc(C(=O)NC[C@H]2CCCC(=O)N2CCCN)c(NCCc2cccc(F)c2)n1 [N-{[(2R)-1-(3-aminopropyl)-6-oxo(2-piperidyl)]methyl}(6-(2-cyanophenyl)-2-{[2-(3-fluorophenyl)ethyl]amino}(3-pyridyl))carboxamide] | 26
17 | Cn1cc(-c2ccc(C(=O)NC[C@H]3CNCC(=O)N3CCCN)c(NCCc3cccc(F)c3)n2)cn1 [N-{[(2R)-1-(3-aminopropyl)-6-oxopiperazin-2-yl]methyl}(2-{[2-(3-fluorophenyl)ethyl]amino}-6-(1-methylpyrazol-4-yl)(3-pyridyl))carboxamide] | 3560
18 | NCCCN1C(=O)CNC[C@@H]1CNC(=O)c1ccc(-c2cc[nH]n2)nc1NCCc1cccc(F)c1 [N-{[(2R)-1-(3-aminopropyl)-6-oxopiperazin-2-yl]methyl}(2-{[2-(3-fluorophenyl)ethyl]amino}-6-pyrazol-3-yl(3-pyridyl))carboxamide] | 9630
19 | NCCCN1C(=O)CNC[C@@H]1CNC(=O)c1ccc(-c2cn[nH]c2)nc1NCCc1cccc(F)c1 [N-{[(2R)-1-(3-aminopropyl)-6-oxopiperazin-2-yl]methyl}(2-{[2-(3-fluorophenyl)ethyl]amino}-6-pyrazol-4-yl(3-pyridyl))carboxamide] | 2340
20 | N#Cc1ccccc1-c1ccc(C(=O)NC[C@H]2CNCC(=O)N2CCCN)c(NCCc2cccc(F)c2)n1 [N-{[(2R)-1-(3-aminopropyl)-6-oxopiperazin-2-yl]methyl}(6-(2-cyanophenyl)-2-{[2-(3-fluorophenyl)ethyl]amino}(3-pyridyl))carboxamide] | 318
21 | N#Cc1ccccc1-c1ccc(C(=O)NC[C@H]2CCCCN2C(=O)CCCN)c(NCCc2cccc(F)c2)n1 [N-{[(2R)-1-(4-aminobutanoyl)(2-piperidyl)]methyl}(6-(2-cyanophenyl)-2-{[2-(3-fluorophenyl)ethyl]amino}(3-pyridyl))carboxamide] | 83
22 | Cn1cc(-c2nc(NCCc3cccc(F)c3)c(C(=O)NC[C@H]3CCN3C(=O)CCCN)cc2F)cn1 [N-{[(2R)-1-(4-aminobutanoyl)azetidin-2-yl]methyl}(5-fluoro-2-{[2-(3-fluorophenyl)ethyl]amino}-6-(1-methylpyrazol-4-yl)(3-pyridyl))carboxamide] | 40
23 | N#Cc1ccccc1-c1ccc(C(=O)NC[C@H]2CCN2C(=O)CCCN)c(NCCc2cccc(F)c2)n1 [N-{[(2R)-1-(4-aminobutanoyl)azetidin-2-yl]methyl}(6-(2-cyanophenyl)-2-{[2-(3-fluorophenyl)ethyl]amino}(3-pyridyl))carboxamide] | 25
24 | N#Cc1ccccc1-c1ccc(C(=O)NC[C@H]2CNCCN2C(=O)CCCN)c(NCCc2cccc(F)c2)n1 [N-{[(2R)-1-(4-aminobutanoyl)piperazin-2-yl]methyl}(6-(2-cyanophenyl)-2-{[2-(3-fluorophenyl)ethyl]amino}(3-pyridyl))carboxamide] | 5480
25 | N#Cc1ccccc1-c1ccc(C(=O)NC[C@H]2CCCN2C(=O)CCCN)c(NCCc2cc(F)cc(F)c2)n1 [N-{[(2R)-1-(4-aminobutanoyl)pyrrolidin-2-yl]methyl}(2-{[2-(3,5-difluorophenyl)ethyl]amino}-6-(2-cyanophenyl)(3-pyridyl))carboxamide] | 23
26 | Cc1cc(C(=O)NC[C@H]2CCCN2C(=O)CCCN)c(NCCc2cccc(F)c2)nc1-c1cnn(C)c1 [N-{[(2R)-1-(4-aminobutanoyl)pyrrolidin-2-yl]methyl}(2-{[2-(3-fluorophenyl)ethyl]amino}-5-methyl-6-(1-methylpyrazol-4-yl)(3-pyridyl))carboxamide] | 381
27 | Cn1cc(-c2ccc(C(=O)NC[C@H]3CCCN3C(=O)CCCN)c(NCCc3cccc(F)c3)n2)cn1 [N-{[(2R)-1-(4-aminobutanoyl)pyrrolidin-2-yl]methyl}(2-{[2-(3-fluorophenyl)ethyl]amino}-6-(1-methylpyrazol-4-yl)(3-pyridyl))carboxamide] | 351
28 | Cn1cc(-c2nc(NCCc3cccc(F)c3)c(C(=O)NC[C@H]3CCCN3C(=O)CCCN)cc2Cl)cn1 [N-{[(2R)-1-(4-aminobutanoyl)pyrrolidin-2-yl]methyl}(5-chloro-2-{[2-(3-fluorophenyl)ethyl]amino}-6-(1-methylpyrazol-4-yl)(3-pyridyl))carboxamide] | 47
29 | Cn1cc(-c2nc(NCCc3cccc(F)c3)c(C(=O)NC[C@H]3CCCN3C(=O)CCCN)cc2C#N)cn1 [N-{[(2R)-1-(4-aminobutanoyl)pyrrolidin-2-yl]methyl}(5-cyano-2-{[2-(3-fluorophenyl)ethyl]amino}-6-(1-methylpyrazol-4-yl)(3-pyridyl))carboxamide] | 211
30 | N#Cc1cc(C(=O)NC[C@H]2CCCN2C(=O)CCCN)c(NCCc2cccc(F)c2)nc1-c1cn[nH]c1 [N-{[(2R)-1-(4-aminobutanoyl)pyrrolidin-2-yl]methyl}(5-cyano-2-{[2-(3-fluorophenyl)ethyl]amino}-6-pyrazol-4-yl(3-pyridyl))carboxamide] | 359
